Measured values as given in ChEMBL document CHEMBL1201862, “PubChem BioAssay data set” (2004).
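Where inhibition never reached the appropriate level, the endpoint shown equals the highest concentration tested. Otherwise, values were interpolated linearly from a five-concentration, 48-hour dose response in 96-well plates. GI50: concentration for 50% inhibition of growth.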 The source made the active and inactive calls. Rule as the data show it: active = GI50 up to about 1.1 µM and inactive = higher.

Tests used:
Experiment in all cases: growth of human tumour cells (NCI), 48 h
[1] = test system: 786-0
[2] = test system: A498
[3] = test system: A549
[4] = test system: ACHN
[5] = test system: CCRF-CEM
[6] = test system: COLO 205
[7] = test system: DLD-1
[8] = test system: DMS-114
[9] = test system: DMS-273
[10] = test system: EKVX
[11] = test system: HCC 2998
[12] = test system: HCT-116
[13] = test system: HL-60
[14] = test system: HOP-18
[15] = test system: HOP-62
[16] = test system: HOP-92
[17] = test system: HT-29
[18] = test system: IGROV-1
[19] = test system: K562
[20] = test system: KM-20L2
[21] = test system: KM12
[22] = test system: LOX IMVI
[23] = test system: LXFL 529
[24] = test system: M14
[25] = test system: M19-MEL
[26] = test system: MOLT-4
[27] = test system: Malme-3M
[28] = test system: NCI-H226
[29] = test system: NCI-H23
[30] = test system: NCI-H522
[31] = test system: OVCAR-3
[32] = test system: OVCAR-5
[33] = test system: OVCAR-8
[34] = test system: RPMI-8226
[35] = test system: RXF 393
[36] = test system: SF-268
[37] = test system: SF-295
[38] = test system: SF-539
[39] = test system: SK-MEL-28
[40] = test system: SK-MEL-2
[41] = test system: SK-OV-3
[42] = test system: SN12C
[43] = test system: SNB-19
[44] = test system: SNB-75
[45] = test system: SNB-78
[46] = test system: SR
[47] = test system: SW-620
[48] = test system: TK-10
[49] = test system: U-251
[50] = test system: UACC-257
[51] = test system: UACC-62
[52] = test system: UO-31
[53] = test system: XF498
[54] = test system: CAKI-1
[55] = test system: HCT-15
[56] = test system: NCI-H460
[57] = test system: OVCAR-4
[58] = test system: SK-MEL-5

**Q.** `C1=CC2CCC1CN2CCC1CNc2ccccc21` (stereo not given) was tested. Which GI50 [1] did it give?
**A.** > 100000 nM (inactive)

**Q.** And the GI50 [2]?
**A.** > 100000 nM (inactive)

**Q.** And the GI50 [3]?
**A.** > 100000 nM (inactive)

**Q.** And the GI50 [4]?
**A.** > 100000 nM (inactive)

**Q.** And the GI50 [5]?
**A.** > 100000 nM (inactive)

**Q.** What about the GI50 [6] of the same molecule?
**A.** > 10000 nM (inactive)

**Q.** What about the GI50 [7] of the same molecule?
**A.** > 100000 nM (inactive)

**Q.** What about the GI50 [8] of the same molecule?
**A.** > 100000 nM (inactive)

**Q.** And the GI50 [9]?
**A.** > 100000 nM (inactive)

**Q.** What about the GI50 [10] of the same molecule?
**A.** > 100000 nM (inactive)

**Q.** What about the GI50 [11] of the same molecule?
**A.** > 100000 nM (inactive)

**Q.** What about the GI50 [12] of the same molecule?
**A.** > 100000 nM (inactive)

**Q.** And the GI50 [13]?
**A.** > 100000 nM (inactive)

**Q.** And the GI50 [14]?
**A.** > 100000 nM (inactive)

**Q.** What about the GI50 [15] of the same molecule?
**A.** > 100000 nM (inactive)

**Q.** What about the GI50 [16] of the same molecule?
**A.** > 100000 nM (inactive)

**Q.** What about the GI50 [17] of the same molecule?
**A.** > 100000 nM (inactive)

**Q.** And the GI50 [18]?
**A.** > 100000 nM (inactive)

**Q.** What about the GI50 [19] of the same molecule?
**A.** > 100000 nM (inactive)

**Q.** And the GI50 [20]?
**A.** > 100000 nM (inactive)

**Q.** What about the GI50 [21] of the same molecule?
**A.** > 100000 nM (inactive)

**Q.** And the GI50 [22]?
**A.** > 100000 nM (inactive)

**Q.** What about the GI50 [23] of the same molecule?
**A.** > 100000 nM (inactive)

**Q.** And the GI50 [24]?
**A.** > 100000 nM (inactive)

**Q.** What about the GI50 [25] of the same molecule?
**A.** > 100000 nM (inactive)

**Q.** And the GI50 [26]?
**A.** > 100000 nM (inactive)

**Q.** And the GI50 [27]?
**A.** > 100000 nM (inactive)

**Q.** And the GI50 [28]?
**A.** > 100000 nM (inactive)

**Q.** And the GI50 [29]?
**A.** > 100000 nM (inactive)

**Q.** And the GI50 [30]?
**A.** > 100000 nM (inactive)

**Q.** What about the GI50 [31] of the same molecule?
**A.** > 100000 nM (inactive)

**Q.** And the GI50 [32]?
**A.** > 100000 nM (inactive)

**Q.** What about the GI50 [33] of the same molecule?
**A.** > 100000 nM (inactive)

**Q.** What about the GI50 [34] of the same molecule?
**A.** > 100000 nM (inactive)

**Q.** And the GI50 [35]?
**A.** 75300 nM (inactive)

**Q.** And the GI50 [36]?
**A.** > 100000 nM (inactive)

**Q.** What about the GI50 [37] of the same molecule?
**A.** > 100000 nM (inactive)

**Q.** And the GI50 [38]?
**A.** > 100000 nM (inactive)

**Q.** And the GI50 [39]?
**A.** > 100000 nM (inactive)

**Q.** What about the GI50 [40] of the same molecule?
**A.** > 100000 nM (inactive)

**Q.** And the GI50 [41]?
**A.** > 100000 nM (inactive)

**Q.** And the GI50 [42]?
**A.** > 100000 nM (inactive)

**Q.** What about the GI50 [43] of the same molecule?
**A.** > 100000 nM (inactive)

**Q.** What about the GI50 [44] of the same molecule?
**A.** > 100000 nM (inactive)

**Q.** What about the GI50 [45] of the same molecule?
**A.** > 100000 nM (inactive)

**Q.** What about the GI50 [46] of the same molecule?
**A.** > 100000 nM (inactive)

**Q.** What about the GI50 [47] of the same molecule?
**A.** > 100000 nM (inactive)

**Q.** What about the GI50 [48] of the same molecule?
**A.** > 100000 nM (inactive)

**Q.** What about the GI50 [49] of the same molecule?
**A.** > 100000 nM (inactive)

**Q.** What about the GI50 [50] of the same molecule?
**A.** > 100000 nM (inactive)

**Q.** And the GI50 [51]?
**A.** > 100000 nM (inactive)

**Q.** What about the GI50 [52] of the same molecule?
**A.** 64900 nM (inactive)

**Q.** What about the GI50 [53] of the same molecule?
**A.** 52700 nM (inactive)

**Q.** For `Cc1c2ccncc2c(C)c2c1[nH]c1ccc(OC(C)C)cc12`, which GI50 [1] is on record?
**A.** 1190 nM (inactive)

**Q.** And the GI50 [2]?
**A.** 1470 nM (inactive)

**Q.** And the GI50 [3]?
**A.** 1520 nM (inactive)

**Q.** And the GI50 [4]?
**A.** 1290 nM (inactive)

**Q.** And the GI50 [54]?
**A.** 1600 nM (inactive)

**Q.** What about the GI50 [5] of the same molecule?
**A.** 1150 nM (inactive)

**Q.** And the GI50 [6]?
**A.** 1320 nM (inactive)

**Q.** What about the GI50 [7] of the same molecule?
**A.** 1350 nM (inactive)

**Q.** And the GI50 [8]?
**A.** 1490 nM (inactive)

**Q.** What about the GI50 [9] of the same molecule?
**A.** 681 nM (active)

**Q.** And the GI50 [10]?
**A.** 1400 nM (inactive)

**Q.** What about the GI50 [11] of the same molecule?
**A.** 2030 nM (inactive)

**Q.** And the GI50 [12]?
**A.** 736 nM (active)

**Q.** What about the GI50 [55] of the same molecule?
**A.** 984 nM

**Q.** And the GI50 [13]?
**A.** 1840 nM (inactive)

**Q.** And the GI50 [14]?
**A.** 318 nM (active)

**Q.** What about the GI50 [15] of the same molecule?
**A.** 1350 nM (inactive)

**Q.** And the GI50 [16]?
**A.** 1510 nM (inactive)

**Q.** What about the GI50 [17] of the same molecule?
**A.** 1320 nM (inactive)

**Q.** What about the GI50 [18] of the same molecule?
**A.** 1430 nM (inactive)

**Q.** And the GI50 [19]?
**A.** 1130 nM (inactive)

**Q.** And the GI50 [20]?
**A.** 1180 nM (inactive)

**Q.** And the GI50 [21]?
**A.** 1350 nM (inactive)

**Q.** And the GI50 [22]?
**A.** 1180 nM (inactive)

**Q.** And the GI50 [23]?
**A.** 787 nM (active)

**Q.** What about the GI50 [24] of the same molecule?
**A.** 1600 nM (inactive)

**Q.** What about the GI50 [25] of the same molecule?
**A.** 1710 nM (inactive)

**Q.** And the GI50 [26]?
**A.** 590 nM (active)

**Q.** And the GI50 [27]?
**A.** 1580 nM (inactive)

**Q.** And the GI50 [28]?
**A.** 1630 nM (inactive)

**Q.** And the GI50 [29]?
**A.** 1530 nM (inactive)

**Q.** What about the GI50 [56] of the same molecule?
**A.** 1030 nM (active)

**Q.** And the GI50 [30]?
**A.** 1630 nM (inactive)

**Q.** And the GI50 [31]?
**A.** 1610 nM (inactive)

**Q.** And the GI50 [57]?
**A.** 1710 nM (inactive)

**Q.** What about the GI50 [32] of the same molecule?
**A.** 1480 nM (inactive)

**Q.** What about the GI50 [33] of the same molecule?
**A.** 1040 nM (active)

**Q.** And the GI50 [34]?
**A.** 1990 nM (inactive)

**Q.** And the GI50 [35]?
**A.** 1330 nM (inactive)

**Q.** What about the GI50 [36] of the same molecule?
**A.** 1430 nM (inactive)

**Q.** And the GI50 [37]?
**A.** 1360 nM (inactive)

**Q.** And the GI50 [38]?
**A.** 1820 nM (inactive)

**Q.** What about the GI50 [39] of the same molecule?
**A.** 1660 nM (inactive)

**Q.** What about the GI50 [40] of the same molecule?
**A.** 1580 nM (inactive)

**Q.** What about the GI50 [58] of the same molecule?
**A.** 1770 nM (inactive)

**Q.** What about the GI50 [41] of the same molecule?
**A.** 1420 nM (inactive)

**Q.** What about the GI50 [42] of the same molecule?
**A.** 1060 nM (active)

**Q.** And the GI50 [43]?
**A.** 1590 nM (inactive)

**Q.** What about the GI50 [44] of the same molecule?
**A.** 1830 nM (inactive)

**Q.** What about the GI50 [45] of the same molecule?
**A.** 2890 nM (inactive)

**Q.** What about the GI50 [46] of the same molecule?
**A.** 668 nM (active)

**Q.** What about the GI50 [47] of the same molecule?
**A.** 547 nM (active)

**Q.** What about the GI50 [48] of the same molecule?
**A.** 1910 nM (inactive)

**Q.** And the GI50 [49]?
**A.** 1380 nM (inactive)

**Q.** What about the GI50 [50] of the same molecule?
**A.** 1820 nM (inactive)

**Q.** And the GI50 [52]?
**A.** 1530 nM (inactive)

**Q.** And the GI50 [53]?
**A.** 1520 nM (inactive)
